Data from the NIST ThermoML archive (doi:10.1016/j.tca.2013.05.007).

How the values were obtained:
[1] = molar heat capacity at constant pressure; conditions: 101.33 kPa, Liquid, Large sample (1 g) DSC
[2] = DTA

CCC[n+]1cccc(C)c1.O=S(=O)([N-]S(=O)(=O)C(F)(F)F)C(F)(F)F
[1]
Conditions	molar heat capacity at constant pressure [J/K/mol]
293.15 K	510
294.15 K	511
295.15 K	513
296.15 K	514
297.15 K	516
298.15 K	517
299.15 K	518
300.15 K	519
301.15 K	520
302.15 K	521
303.15 K	522
304.15 K	523
305.15 K	524
306.15 K	525
307.15 K	526
308.15 K	527
309.15 K	528
310.15 K	529
311.15 K	530
312.15 K	531
313.15 K	532
314.15 K	532
315.15 K	533
316.15 K	534
317.15 K	535
318.15 K	536
319.15 K	536
320.15 K	537
321.15 K	538
322.15 K	539
323.15 K	540
324.15 K	541
325.15 K	541
326.15 K	542
327.15 K	543
328.15 K	544
329.15 K	545
330.15 K	546
331.15 K	547
332.15 K	548
333.15 K	549

Conditions	Glass transition temperature [°C]
[2]	-88

CCCC[n+]1cccc(C)c1.O=S(=O)([O-])C(F)(F)F [1-butyl-3-methylpyridinium trifluoromethanesulfonate]
Conditions	Normal melting temperature [°C]	molar heat capacity at constant pressure [J/K/mol]
[1], 323.15 K	–	461
[1], 324.15 K	–	462
[1], 325.15 K	–	464
[1], 326.15 K	–	465
[1], 327.15 K	–	467
[1], 328.15 K	–	468
[1], 329.15 K	–	469
[1], 330.15 K	–	471
[1], 331.15 K	–	472
[1], 332.15 K	–	473
[1], 333.15 K	–	474
[1], 334.15 K	–	475
[1], 335.15 K	–	476
[1], 336.15 K	–	478
[1], 337.15 K	–	479
[1], 338.15 K	–	480
[1], 339.15 K	–	481
[1], 340.15 K	–	482
[1], 341.15 K	–	483
[1], 342.15 K	–	485
[1], 343.15 K	–	486
[1], 344.15 K	–	487
[1], 345.15 K	–	488
[1], 346.15 K	–	489
[1], 347.15 K	–	490
[1], 348.15 K	–	491
[1], 349.15 K	–	492
[1], 350.15 K	–	493
[1], 351.15 K	–	494
[1], 352.15 K	–	495
[1], 353.15 K	–	496
[2], Crystal 1	30	–
[2], Metastable crystal	-6	–

Conditions	Glass transition temperature [°C]
[2]	-76

CCCCn1cc[n+](C)c1.N#CN=C=[N-] [1-butyl-3-methylimidazolium dicyanamide]
Conditions	Normal melting temperature [°C]	Triple point temperature [K]	molar heat capacity at constant pressure [J/K/mol]
[1], 293.15 K	–	–	372
[1], 294.15 K	–	–	373
[1], 295.15 K	–	–	374
[1], 296.15 K	–	–	375
[1], 297.15 K	–	–	375
[1], 298.15 K	–	–	376
[1], 299.15 K	–	–	377
[1], 300.15 K	–	–	377
[1], 301.15 K	–	–	378
[1], 302.15 K	–	–	378
[1], 303.15 K	–	–	379
[1], 304.15 K	–	–	379
[1], 305.15 K	–	–	380
[1], 306.15 K	–	–	380
[1], 307.15 K	–	–	381
[1], 308.15 K	–	–	381
[1], 309.15 K	–	–	382
[1], 310.15 K	–	–	382
[1], 311.15 K	–	–	382
[1], 312.15 K	–	–	383
[1], 313.15 K	–	–	383
[1], 314.15 K	–	–	384
[1], 315.15 K	–	–	384
[1], 316.15 K	–	–	384
[1], 317.15 K	–	–	385
[1], 318.15 K	–	–	385
[1], 319.15 K	–	–	385
[1], 320.15 K	–	–	386
[1], 321.15 K	–	–	386
[1], 322.15 K	–	–	387
[1], 323.15 K	–	–	387
[1], 324.15 K	–	–	388
[1], 325.15 K	–	–	388
[1], 326.15 K	–	–	388
[1], 327.15 K	–	–	389
[1], 328.15 K	–	–	389
[1], 329.15 K	–	–	390
[1], 330.15 K	–	–	390
[1], 331.15 K	–	–	391
[1], 332.15 K	–	–	391
[1], 333.15 K	–	–	392
[2], Crystal 1	-6	–	–
[2], Crystal 2	–	225	–

Conditions	Glass transition temperature [°C]
[2]	-92

CCCCn1cc[n+](C)c1.O=S(=O)([O-])C(F)(F)F [1-butyl-3-methylimidazolium trifluoromethanesulfonate]
Conditions	Normal melting temperature [°C]	molar heat capacity at constant pressure [J/K/mol]
[1], 323.15 K	–	456
[1], 324.15 K	–	457
[1], 325.15 K	–	458
[1], 326.15 K	–	459
[1], 327.15 K	–	460
[1], 328.15 K	–	461
[1], 329.15 K	–	462
[1], 330.15 K	–	463
[1], 331.15 K	–	464
[1], 332.15 K	–	465
[1], 333.15 K	–	466
[1], 334.15 K	–	467
[1], 335.15 K	–	467
[1], 336.15 K	–	468
[1], 337.15 K	–	469
[1], 338.15 K	–	470
[1], 339.15 K	–	471
[1], 340.15 K	–	472
[1], 341.15 K	–	473
[1], 342.15 K	–	474
[1], 343.15 K	–	475
[1], 344.15 K	–	476
[1], 345.15 K	–	477
[1], 346.15 K	–	477
[1], 347.15 K	–	478
[1], 348.15 K	–	479
[1], 349.15 K	–	480
[1], 350.15 K	–	481
[1], 351.15 K	–	481
[1], 352.15 K	–	482
[1], 353.15 K	–	483
[2], Crystal	12	–

CCCC[n+]1cccc(C)c1.O=S(=O)([N-]S(=O)(=O)C(F)(F)F)C(F)(F)F
[1]
Conditions	molar heat capacity at constant pressure [J/K/mol]
293.15 K	541
294.15 K	542
295.15 K	544
296.15 K	546
297.15 K	547
298.15 K	548
299.15 K	550
300.15 K	551
301.15 K	552
302.15 K	553
303.15 K	554
304.15 K	555
305.15 K	556
306.15 K	557
307.15 K	558
308.15 K	559
309.15 K	560
310.15 K	561
311.15 K	562
312.15 K	563
313.15 K	564
314.15 K	564
315.15 K	565
316.15 K	566
317.15 K	567
318.15 K	568
319.15 K	569
320.15 K	570
321.15 K	570
322.15 K	571
323.15 K	572
324.15 K	573
325.15 K	574
326.15 K	575
327.15 K	576
328.15 K	577
329.15 K	578
330.15 K	579
331.15 K	580
332.15 K	581
333.15 K	582

Conditions	Glass transition temperature [°C]
[2]	-85

CC[n+]1cccc(C)c1.O=S(=O)([N-]S(=O)(=O)C(F)(F)F)C(F)(F)F
Conditions	Normal melting temperature [°C]	molar heat capacity at constant pressure [J/K/mol]
[1], 293.15 K	–	484
[1], 294.15 K	–	486
[1], 295.15 K	–	487
[1], 296.15 K	–	489
[1], 297.15 K	–	490
[1], 298.15 K	–	491
[1], 299.15 K	–	493
[1], 300.15 K	–	494
[1], 301.15 K	–	495
[1], 302.15 K	–	496
[1], 303.15 K	–	497
[1], 304.15 K	–	498
[1], 305.15 K	–	499
[1], 306.15 K	–	500
[1], 307.15 K	–	501
[1], 308.15 K	–	502
[1], 309.15 K	–	502
[1], 310.15 K	–	503
[1], 311.15 K	–	504
[1], 312.15 K	–	505
[1], 313.15 K	–	506
[1], 314.15 K	–	507
[1], 315.15 K	–	507
[1], 316.15 K	–	508
[1], 317.15 K	–	509
[1], 318.15 K	–	510
[1], 319.15 K	–	510
[1], 320.15 K	–	511
[1], 321.15 K	–	512
[1], 322.15 K	–	513
[1], 323.15 K	–	514
[1], 324.15 K	–	514
[1], 325.15 K	–	515
[1], 326.15 K	–	516
[1], 327.15 K	–	517
[1], 328.15 K	–	518
[1], 329.15 K	–	519
[1], 330.15 K	–	519
[1], 331.15 K	–	520
[1], 332.15 K	–	521
[1], 333.15 K	–	522
[2], Crystal	-1	–
